Test results reported in patent US20070015823A1, “Ambruticin VS compounds” (priority 2004, published 2007).

Legend:
A. fumigatus ATCC 204305 = assay: Broth microdilution antifungal susceptibility, NCCLS M38-A; assay type: cell-based, Aspergillus fumigatus; conditions: minimal concentration inhibiting >95% growth; average of at least two assays (except I-l and I-x)
A. flavus ATCC 204304 = assay: as above; assay type: cell-based, Aspergillus flavus; conditions: minimal concentration inhibiting >95% growth; average of at least two assays (except I-l and I-x)

Row | Compound | MIC0 A. fumigatus ATCC 204305 (A. fumigatus ATCC 204305) | MIC0 A. flavus ATCC 204304 (A. flavus ATCC 204304)
1 | 20,21-dihydro ambruticin VS4 [IV-e] | 2.5 µg/mL | 1 µg/mL
2 | CC[C@H]1O[C@@H](/C(C)=C/[C@H](C)/C=C/[C@H]2[C@@H](C)[C@@H]2/C=C/[C@@H]2O[C@H](CC(=O)O)C[C@H](N(C)C)[C@H]2O)CC=C1C [Ambruticin VS-3, (5S,6R)-5-(dimethylamino)-6-hydroxypolyangioic acid, reference compound] | 0.44 µg/mL | 0.64 µg/mL
3 | CC[C@H]1O[C@@H](/C(C)=C/[C@H](C)/C=C/[C@H]2[C@@H](C)[C@@H]2/C=C/[C@@H]2O[C@H](CC(=O)O)C[C@H](N)[C@H]2O)CC=C1C [Ambruticin VS-5, (5S,6R)-5-amino-6-hydroxypolyangioic acid, reference compound] | 1.64 µg/mL | 1.09 µg/mL
4 | CC[C@H]1O[C@@H](/C(C)=C/[C@H](C)/C=C/[C@H]2[C@@H](C)[C@@H]2/C=C/[C@@H]2O[C@H](CC(=O)O)C[C@H](NC(=O)OC)[C@H]2O)CC=C1C [I-bb, (5S,6R)-5-methoxycarbonylamino-6-hydroxypolyangioic acid] | 16 µg/mL | 32 µg/mL
5 | C=CCNC(=O)O[C@H]1[C@H](/C=C/[C@H]2[C@H](C)[C@@H]2/C=C/[C@@H](C)/C=C(\C)[C@H]2CC=C(C)[C@@H](CC)O2)O[C@H](CC(=O)O)C[C@@H]1N(C)C(=O)NCC=C [I-cc, (5S,6R)-5-(3-allyl-1-methylureido)-6-(allylcarbamoyl)polyangioic acid] | >32 µg/mL | >32 µg/mL
6 | CC[C@H]1O[C@@H](/C(C)=C/[C@H](C)/C=C/[C@H]2[C@@H](C)[C@@H]2/C=C/[C@@H]2O[C@H](CC(=O)O)C[C@H](N(C)C(=O)NCc3ccccc3)[C@H]2OC(=O)NCc2ccccc2)CC=C1C [I-dd, (5S,6R)-5-(3-benzyl-1-methylureido)-6-(benzylcarbamoyl)polyangioic acid] | >32 µg/mL | >32 µg/mL
7 | CC[C@H]1O[C@@H](/C(C)=C/[C@H](C)/C=C/[C@H]2[C@@H](C)[C@@H]2/C=C/[C@@H]2O[C@H](CC(=O)O)C[C@H](N(CC3CC3)CC3CC3)[C@H]2O)CC=C1C [I-e, (5S,6R)-5-[di(cyclopropylmethyl)amino]-6-hydroxypolyangioic acid] | 4.0 µg/mL | 3.33 µg/mL
8 | CC[C@H]1O[C@@H](/C(C)=C/[C@H](C)/C=C/[C@H]2[C@@H](C)[C@@H]2/C=C/[C@@H]2O[C@H](CC(=O)O)C[C@H](N(C)Cc3ccc4ccccc4c3)[C@H]2O)CC=C1C [I-f, (5S,6R)-5-(N-(2-naphthyl)methyl-methylamino)-6-hydroxypolyangioic acid] | 8.0 µg/mL | 4.67 µg/mL
9 | CC[C@H]1O[C@@H](/C(C)=C/[C@H](C)/C=C/[C@H]2[C@@H](C)[C@@H]2/C=C/[C@@H]2O[C@H](CC(=O)O)C[C@H](NC(=O)C(F)(F)F)[C@H]2O)CC=C1C [I-fff, (5S,6R)-5-trifluroacetamido-6-hydroxypolyangioic acid] | 3 µg/mL | 2 µg/mL
10 | CC[C@H]1O[C@@H](/C(C)=C/[C@H](C)/C=C/[C@H]2[C@@H](C)[C@@H]2/C=C/[C@@H]2O[C@H](CC(=O)O)C[C@H](N(Cc3c[nH]cn3)Cc3c[nH]cn3)[C@H]2O)CC=C1C [I-g, (5S,6R)-5-{di [(4-imidazolyl)methyl]amino}-6-hydroxypolyangioic acid] | 22.67 µg/mL | 24.0 µg/mL
11 | CC[C@H]1O[C@@H](/C(C)=C/[C@H](C)/C=C/[C@H]2[C@@H](C)[C@@H]2/C=C/[C@@H]2O[C@H](CC(=O)OC)C[C@H](N(C)C(=O)OCC(C)C)[C@H]2O)CC=C1C [I-gg] | >32 µg/mL | >32 µg/mL
12 | CC[C@H]1O[C@@H](/C(C)=C/[C@H](C)/C=C/[C@H]2[C@@H](C)[C@@H]2/C=C/[C@@H]2O[C@H](CC(=O)O)C[C@H](NCC(F)F)[C@H]2O)CC=C1C [I-ggg, (5S,6R)-5-(2,2-difluoroethyl)amino-6-hydroxypolyangioic acid] | 4 µg/mL | 8 µg/mL
13 | CC[C@H]1O[C@@H](/C(C)=C/[C@H](C)/C=C/[C@H]2[C@@H](C)[C@@H]2/C=C/[C@@H]2O[C@H](CC(=O)O)C[C@H](NCc3ccc(OC)c(OC)c3)[C@H]2O)CC=C1C [I-hhh, (5S,6R)-5-(3,4-dimethoxybenzyl)amino-6-hydroxypolyangioic acid] | >32 µg/mL | >32 µg/mL
14 | CC[C@H]1O[C@@H](/C(C)=C/[C@H](C)/C=C/[C@H]2[C@@H](C)[C@@H]2/C=C/[C@@H]2O[C@H](CCO)C[C@H](NCC(F)(F)F)[C@H]2O)CC=C1C [I-iii, (5S,6R)-5-(2,2,2-trifluroethyl)aminopolyangi-1,6-diol] | 16 µg/mL | 16 µg/mL
15 | CC[C@H]1O[C@@H](/C(C)=C/[C@H](C)/C=C/[C@H]2[C@@H](C)[C@@H]2/C=C/[C@@H]2O[C@H](CC(=O)O)C[C@H](NC(C)=O)[C@H]2O)CC=C1C [I-j, (5S,6R)-5-acetamido-6-hydroxypolyangioic acid] | 32 µg/mL | >32 µg/mL
16 | CC[C@H]1O[C@@H](/C(C)=C/[C@H](C)/C=C/[C@H]2[C@@H](C)[C@@H]2/C=C/[C@@H]2O[C@H](CCO)C[C@H](NCC(F)F)[C@H]2O)CC=C1C [I-jjj, (5S,6R)-5-(2,2-difluroethyl)aminopolyangi-1,6-diol] | 8 µg/mL | 8 µg/mL
17 | CC[C@H]1O[C@@H](/C(C)=C/[C@H](C)/C=C/[C@H]2[C@@H](C)[C@@H]2/C=C/[C@@H]2O[C@H](CC(=O)OC)C[C@H](N(C)C(C)=O)[C@H]2O)CC=C1C [I-k, methyl (5S,6R)-5-[N-methyl(acetamido)]-6-hydroxypolyangioate] | >32 µg/mL | >32 µg/mL
18 | CCC(=O)N(C)[C@H]1C[C@@H](CC(=O)O)O[C@@H](/C=C/[C@H]2[C@H](C)[C@@H]2/C=C/[C@@H](C)/C=C(\C)[C@H]2CC=C(C)[C@@H](CC)O2)[C@@H]1O [I-m, (5S,6R)-5-[N-methyl(propionamido)]-6-hydroxypolyangioic acid] | >32 µg/mL | >32 µg/mL
19 | CC[C@H]1O[C@@H](/C(C)=C/[C@H](C)/C=C/[C@H]2[C@@H](C)[C@@H]2/C=C/[C@@H]2O[C@H](CC(=O)O)C[C@H](N(C)C(=O)OC)[C@H]2O)CC=C1C [I-o] | 16 µg/mL | 32 µg/mL
20 | CC[C@H]1O[C@@H](/C(C)=C/[C@H](C)/C=C/[C@H]2[C@@H](C)[C@@H]2/C=C/[C@@H]2O[C@H](CC(=O)O)C[C@H](N(C)C(=O)NCc3ccccc3)[C@H]2O)CC=C1C [I-p, (5S,6R)-5-(3-benzyl-1-methylureido)-6-hydroxypolyangioic acid] | 32 µg/mL | 32 µg/mL
21 | CC[C@H]1O[C@@H](/C(C)=C/[C@H](C)/C=C/[C@H]2[C@@H](C)[C@@H]2/C=C/[C@@H]2O[C@H](CC(=O)NCCN(C)C)C[C@H](N(C)C)[C@H]2O)CC=C1C [I-qq, (5S,6R)-5-dimethylamino-6-hydroxy-N-[(2-dimethylamino)ethyl]polyangiamide] | 32 µg/mL | >32 µg/mL
22 | CC[C@H]1O[C@@H](/C(C)=C/[C@H](C)/C=C/[C@H]2[C@@H](C)[C@@H]2/C=C/[C@@H]2O[C@H](CC(=O)O)C[C@H](N(C)C(=O)OCC(C)C)[C@H]2O)CC=C1C [I-r, (5S,6R)-5-[N-methyl(isobutoxycarbonylamino)]-6-hydroxypolyangioic acid] | >32 µg/mL | >32 µg/mL
23 | CC[C@H]1O[C@@H](/C(C)=C/[C@H](C)/C=C/[C@H]2[C@@H](C)[C@@H]2/C=C/[C@@H]2O[C@H](CC(=O)NCCO)C[C@H](N(C)C)[C@H]2O)CC=C1C [I-rr, (5S,6R)-5-dimethylamino-6-hydroxy-N-(2-hydroxyethyl)polyangiamide] | 4 µg/mL | 2 µg/mL
24 | CC[C@H]1O[C@@H](/C(C)=C/[C@H](C)/C=C/[C@H]2[C@@H](C)[C@@H]2/C=C/[C@@H]2O[C@H](CC(=O)O)C[C@H](NC(=O)NCc3ccccc3)[C@H]2O)CC=C1C [I-s, (5S,6R)-5-(3-benzylureido)-6-hydroxypolyangioic acid] | 16 µg/mL | 32 µg/mL
25 | CC[C@H]1O[C@@H](/C(C)=C/[C@H](C)/C=C/[C@H]2[C@@H](C)[C@@H]2/C=C/[C@@H]2O[C@H](CC(=O)NCC(=O)OC)C[C@H](N(C)C)[C@H]2O)CC=C1C [I-ss, (5S,6R)-5-dimethylamino-6-hydroxy-N-(methoxycarbonylmethyl)polyangiamide] | 4 µg/mL | 8 µg/mL
26 | CC[C@H]1O[C@@H](/C(C)=C/[C@H](C)/C=C/[C@H]2[C@@H](C)[C@@H]2/C=C/[C@@H]2O[C@H](CC(=O)N(C)OC)C[C@H](N(C)C)[C@H]2O)CC=C1C [I-tt, (5S,6R)-5-dimethylamino-6-hydroxy-N-methoxy-N-methylpolyangiamide] | 8 µg/mL | 4 µg/mL
